From US5084082A, “Soybean plants with dominant selectable trait for herbicide resistance” (priority 1990, dated 1992)

Tests used:
original cultivar = settings: original tomato cultivar; cited from earlier work
tolerant tomato lines = settings: cited from earlier work
[1] = system: Williams 82 (wild type soybean cultivar); assay: Pilot study in modified Hydropot Solo hydroponic system; format: in vivo; settings: Williams 82, 100 ppb in nutrient solution, 10 days after planting
Experimental: (§1) A pilot study was conducted to determine whether the modified Hydropot Solo system could be used to consistently differentiate between previously isolated (Sebastian and Chaleff, 1987. Crop Science 27:948-952) SU-tolerant mutants and wild type soybean plants. Four Hydropot Solo units were prepared with each planting tank containing a lower layer of pea gravel and an upper layer of fine vermiculite as described previously. Each reservoir was filled with tap water supplemented with 1/4 tablespoon of Miracle Grow soluble fertilizer per gallon. One hydroponic unit served as an untreated control while the nutrient solution of each of the other three was supplemented with either 100, 300, or 1000 ppb of an experimental sulfonylurea herbicide Compound 12. Ten seeds each of Williams 82 (wild type soybean cultivar), mutant 1-184A, mutant 1-183A, mutant 1-166A, and mutant 1-126A were then planted 2 cm deep into the vermiculite layer of each of the four hydroponic units. The programmable timer was set to irrigate the planting tanks for four 30-minute intervals during each 24-hour period. […] Differences between mutant and wild type became less dramatic as the herbicide concentration increased to 1000 ppb. […] These observations confirmed that the modified Hydropot system could be used to select for herbicide tolerance. […]

[2] = system: SU-tolerant mutants 1-184A, 1-183A, 1-166A, 1-126A; assay: as above; format: in vivo, soybean
Experimental: as §1

wild type soybeans = assay: Pilot studies, threshold concentration in hydroponic system; format: in vivo, soybean; settings: 100 mg/L used to irrigate the hydroponic system
Description: (§2) The same sulfonylurea concentrations would select only highly resistant plants.

[3] = system: mutants that have heritable sulfonylurea tolerance; assay: as above; format: in vivo, soybean; settings: sulfonylurea tolerant mutants, 100 mg/L used to irrigate the hydroponic system
Description: as §2

mutant line W20 = assay: Test B postemergence cross resistance test; format: in vivo, soybean; settings: Glycine max, post-emergence
Description: (§3) In the second postemergence test, six true-breeding resistant mutant lines (W4, W17, W19, W20, W23, and W28) were compared to Williams 82 for cross resistance to a broad range of ALS inhibitors including eight sulfonylureas and three imidazolinones. Two seeds were planted in each 10 cm pot and allowed to grow to the second trifoliolate stage. Pots were not thinned back if both plants were at the proper stage. For each of 11 herbicides, two rates (Table VII) were selected based on previous data: the low rate was expected to cause significant injury (but not death) to Williams 82 and the high rate was expected to severely injure or kill Williams 82. All but a few line x rate treatments were replicated twice.
(§4) In both postemergence tests, plants were returned to the greenhouse after treatment and provided with ample light, moisture, and nutrients to support healthy plant growth. Two to three ratings per pot were recorded over a three-week period and averaged to obtain a single value for each pot For each herbicide, analysis of variance on injury ratings was performed separately. Fisher's least significant difference (LSD) was used to determine the significance of line mean differences at each herbicide rate using the 95% level of confidence.

ALS of W23-10 = assay: In vitro ALS activity of leaf tissue in the presence of Compounds 8 and 9; format: biochemical, soybean; settings: W23-10, 10 ppm
Description: (§5) At approximately 1 month after transplantation, some of the selections appeared much healthier than others. For example, W4-4, W4-6, W6-1, W6-2, W6-4, W23-10, and W23-11 recovered very well from the seed soak treatment with Compound 8. These plants were suspected of having a higher level of ALS resistance to Compound 8 than did the parental material from which they were derived. The applicant was also interested to see if any of these selections were cross resistant to an imidazolinone herbicide such as Compound 9. To test this hypothesis, leaf tissue of the one-month-old M2 plants was sampled and assayed in vitro for ALS activity in the presence of Compound 8 and Compound 9. The ALS assay procedure was essentially identical to the previously described ALS assay except that the herbicide concentrations tested were 100 ppb Compound 8 and 10 ppm Compound 9. Williams and mutant W20 soybean plants were also assayed as control genotypes for comparison. Williams contains no genes conferring the ALS-based sulfonylurea resistance while W20 is homozygous for a single mutation conferring ALS-based sulfonylurea resistance.
(§6) Acetolactate synthase (ALS) was extracted from leaves of soybean plants growing vegetatively. The leaves were homogenized in 4 volumes of buffer containing 100 mM hepes (pH 7.5), 1 mM sodium pyruvate, 0.5 mM magnesium chloride, 0.5 mM thiamine pyrophosphate, […], 10% glycerol, 5% PVPP, and 0.2% mercaptoethanol. The homogenate was filtered through cheese cloth and centrifuged at 20,000 g for 20 min. ALS was precipitated from the supernatant with ammonium sulfate. The enzyme was collected between 20 and 60% saturation by centrifugation at 20,000 g for 20 min. The pellet was resuspended in buffer containing 100 mM Hepes, 1 mM sodium pyruvate, and 0.5 mM magnesium chloride, and desalted on PD-10 columns (Pharmacia) equilibrated with the same buffer. ALS assays were carried out in a final volume of 0.5 mL at 30° C. The final reaction mixture contained 100 mM Hepes (pH 7.5), 1 mM magnesium chloride, 60 mM sodium pyruvate, 0.4 mM thiaminepyrophosphate, […], and various concentrations of chlorsulfuron. The assays were initiated with the addition of enzyme ([…]) and terminated with the addition of […] of 6N sulfuric acid. The acidified reaction mixture was heated to 60° C. for 15 min, after which 0.5 mL of 0.5% (W/V) creatine and 0.5 mL of 5% (W/V) napthol (freshly prepared in 2.5 N sodium hydroxide) were added. The reaction mixtures were heated for an additional 15 min at 60° C., and the absorbance was read at 525 nm. Data are expressed in terms of % control (minus Compound 1) activity and are the average of two replications. Fisher's least significant difference (LSD) value (at the 95% level of confidence) was calculated for each Compound 1 concentration to determine the significance of genotype mean differences.

ALS of W4-5 = assay: as above; format: biochemical, soybean; settings: W4-5, 10 ppm
Description: as §5, §6

ALS of W23-11 = assay: as above; format: biochemical, soybean; settings: W23-11, 10 ppm
Description: as §5, §6

ALS of W4-4 = assay: as above; format: biochemical, soybean; settings: W4-4, 10 ppm
Description: as §5, §6

ALS of W4-6 = assay: as above; format: biochemical, soybean; settings: W4-6, 10 ppm
Description: as §5, §6

ALS of W6-1 = assay: as above; format: biochemical, soybean; settings: W6-1, 10 ppm
Description: as §5, §6

ALS of W20 = assay: as above; format: biochemical, soybean; settings: W20, 10 ppm
Description: as §5, §6

ALS of W6-2 = assay: as above; format: biochemical, soybean; settings: W6-2, 10 ppm
Description: as §5, §6

ALS of Williams = assay: as above; format: biochemical, soybean; settings: 10 ppm
Description: as §5, §6

ALS of W6-4 = assay: as above; format: biochemical, soybean; settings: W6-4, 10 ppm
Description: as §5, §6

mutant line W28 = assay: Test B postemergence cross resistance test; format: in vivo, soybean; settings: Glycine max, post-emergence
Description: as §3
as §4, with “confidence. […]” for “confidence.”

mutant line W23 = assay: Test B postemergence cross resistance test; format: in vivo, soybean; settings: Glycine max, post-emergence
Description: as §3
as §4, with “confidence. […]” for “confidence.”

Williams 82 = assay: Test B postemergence cross resistance test; format: in vivo, soybean; settings: Glycine max, post-emergence, read-out: mean % injury
Description: as §3
as §4, with “confidence. […]” for “confidence.”

mutant line W4 = assay: Test B postemergence cross resistance test; format: in vivo, soybean; settings: Glycine max, post-emergence
Description: as §3
as §4, with “confidence. […]” for “confidence.”

mutant line W19 = assay: Test B postemergence cross resistance test; format: in vivo, soybean; settings: Glycine max, post-emergence
Description: as §3
as §4, with “confidence. […]” for “confidence.”

mutant line W17 = assay: Test B postemergence cross resistance test; format: in vivo, soybean; settings: Glycine max, post-emergence
Description: as §3
as §4, with “confidence. […]” for “confidence.”

## CN(C)C(=O)C(c1ccccc1)c1ccccc1 [diphenamid]
Original cultivar
  reduction in seedling weight: 40%
Tolerant tomato lines
  reduction in seedling weight: 25%

## COc1cc(OC)nc(NC(=O)NS(=O)(=O)c2cccc3c2S(=O)(=O)C(C)C3)n1 (single isomer, unassigned) [Compound 12, N-[[(4,6-dimethoxy-2-pyrimidinyl)amino]carbonyl]-2,3,-dihydro-2-methylbenzo [B] thiophene-7-sulfonamide, 1,1-dioxide]
[1]
  formation of unifoliolate leaves and secondary roots: could not
[2]; tolerant mutant plants, 100 ppb in nutrient solution, 10 days after planting
  formation of unifoliolate leaves and secondary roots: able to form both unifoliolate leaves and secondary roots
[2]; tolerant mutants, 100 ppb, 20 to 28 days
  further development on prolonged exposure: prevented further development
Wild type soybeans
  leaf and root development: consistently stunt or inhibit leaf and root development
[3]
  leaf formation: allow unifoliolate (but not trifoliolate) formation

## CC(C)C1(C)N=C(c2nc3ccccc3cc2C(=O)O)NC1=O (stereo not shown) [Compound 9, 2-[4,5-dihydro-4-methyl-4-(1-methylethyl)-5-oxo-1H-imidazol-2-Yl]-3-quinolinecarboxylic acid]
Mutant line W20; W20, 250 g/ha postemergence
  percent crop injury at 250 g/ha: 5%
Mutant line W20; W20, 1000 g/ha postemergence
  percent crop injury at 1000 g/ha: 15%
ALS of W23-10
  uninhibited ALS activity as % of control: 19.5 % of control
ALS of W4-5
  uninhibited ALS activity as % of control: 19.3 % of control
ALS of W23-11
  uninhibited ALS activity as % of control: 13.0 % of control
ALS of W4-4
  uninhibited ALS activity as % of control: 44.3 % of control
ALS of W4-6
  uninhibited ALS activity as % of control: 10.7 % of control
ALS of W6-1
  uninhibited ALS activity as % of control: 16.2 % of control
ALS of W20
  uninhibited ALS activity as % of control: 18.4 % of control
ALS of W6-2
  uninhibited ALS activity as % of control: 11.7 % of control
ALS of Williams
  uninhibited ALS activity as % of control: 14.0 % of control
ALS of W6-4
  uninhibited ALS activity as % of control: 18.7 % of control
Mutant line W28; W28, 250 g/ha postemergence
  mean % injury to soybean at 250 g/ha: 9%
Mutant line W28; W28, 1000 g/ha postemergence
  mean % injury to soybean at 1000 g/ha: 15%
Mutant line W23; W23, 250 g/ha postemergence
  percent soybean injury at 250 g/ha: 9%
Mutant line W23; W23, 1000 g/ha postemergence
  percent soybean injury at 1000 g/ha: 13%
Williams 82
  pest or weed control at 250 g/ha: 8%
  pest or weed control at 1000 g/ha: 13%
Mutant line W4; W4, 250 g/ha postemergence
  % crop injury at 250 g/ha: 13%
Mutant line W4; W4, 1000 g/ha postemergence
  % crop injury at 1000 g/ha: 13%
Mutant line W19; W19, 250 g/ha postemergence
  percent soybean crop injury at 250 g/ha: 9%
Mutant line W19; W19, 1000 g/ha postemergence
  percent soybean crop injury at 1000 g/ha: 9%
Mutant line W17; W17, 250 g/ha postemergence
  soybean crop injury (%) at 250 g/ha: 0%
Mutant line W17; W17, 1000 g/ha postemergence
  soybean crop injury (%) at 1000 g/ha: 8%
